Experimental findings from patent US7462630B2, “Diarylalkene derivatives and novel diarylalkane derivatives” (Ajinomoto Co., Inc., priority 2001, dated 2008) are described below.

One test concerns the target T1, N-type calcium channel (Homo sapiens, UniProt Q00975).
T1 construct: host or cells: IMR-32 human neuroblastoma cells, differentiated with dibutyl cAMP and 5-bromodeoxyuridine
In words: Antagonistic activity on N-type calcium channel (fluorescence dye method, KCl-stimulated intracellular calcium change in IMR-32 cells with 1 μM Nifedipine). Type of test: cell-based. Particulars: 10 μM test compound, 60 mM KCl stimulation, read-out: Antagonistic activity on N-type calcium channels at 10 μM inhibition rate (%). As to the method: Human neuroblastoma cells IMR-32 were obtained from ATCC (American Type Culture Collection). The medium used was a Phenol Red-free Eagle minimum essential medium containing earle's salts (GIBCO) supplemented with 2 mM of L-glutamine (GIBCO), 1 mM of sodium pyruvate (pH 6.5) (GIBCO), antibiotic/antimycotic mixture (GIBCO) and 10% fetal calf serum (Cell Culture Technologies). Three ml of 1×10^5 cells/ml IMR-32 cells were spread on the glass bottom of a dish (Iwaki Glsss Co., Ltd.) having a diameter of 35 mm which had been treated with poly-L-lysin (SIGMA) and collagen (COLLAGEN VITROGEN 100; Collagen Co.). After the culture for 1 day, 1 mM (final concentration) of dibutyl cAMP and 2.5 μM (final concentration) of 5-bromodeoxyuridine (SIGMA) were added. After the culture for additional 10 to 14 days, the cells were subjected to the activity determination.
The medium for IMR-32 cells thus prepared was replaced with 1 ml of Phenol Red-free Eale minimum essential medium (GIBCO) containing 2.5 μM fura-2/AM (Dojin Kagaku, Co.) and earle's salts supplement, and the incubation was conducted at 37° C. for 30 minutes. Then the medium was replaced with a recording medium (20 mM of HEPES-KOH, 115 mM of NaCl, 5.4 mM of KCl, 0.8 mM of MgCl2, 1.8 mM of CaCl2 and 13.8 mM of D-glucose). Antagonistic activity on N-type calcium channel was determined and analyzed using a fluorescence microscope (Nikon Corporation) and an image analysis device ARGUS 50 (Hamamatsu Photonics). In particular, a recording medium (20 mM of HEPES-KOH, 115 mM of NaCl, 5.4 mM of KCl, 0.8 mM of MgCl2, 1.8 mM of CaCl2 and 13.8 mM of D-glucose) containing 1 μM of Nifedipine was given to the cells by reflux by a Y-tube method for 2 minutes. Then a stimulating agent containing 60 mM of potassium chloride was rapidly given by the Y-tube method. The calcium concentration change in the cells in this step was shown as the N-type calcium channel activity. Then stimulating agents containing 60 mM of potassium chloride and 0.1, 1 or 10 μM of the test compound were successively and rapidly given to the cells by the Y-tube method to determine the change in the intracellular calcium concentration. The antagonistic activity on N-type calcium channel was calculated from the inhibition rate (%) at a concentration of 10 μM.

The target in a further test is T2, L-type calcium channel (Rattus norvegicus, UniProt P22002).
T2 construct: relaxation response against the KCl-induced contraction of isolated rat thoracic aorta was employed; from tissue; host or cells: endothelium-denuded thoracic aorta rings of Wistar rat
In words: Antagonistic activity on L-type calcium channel (relaxation response against KCl-induced contraction of isolated rat thoracic aorta). Particulars: read-out: Antagonistic action on L-type calcium channels pIC50 (converted). How it is done: The antagonistic activity of the new diarylalkene derivatives and diarylalkane derivatives of the present invention to inhibit L-type calcium channel was determined by the following method in which the relaxation response against the KCl-induced contraction of isolated rat thoracic aorta was employed.
The slips of thoracic aorta isolated from a Wistar rat were used. The aorta was cut to obtain ring-shaped samples having a width of about 3 mm. The endothelial cells of the samples were mechanically removed. The samples were suspended in a strain gage in Tyrode's solution (158.3 mM of NaCl, 4.0 mM of KCl, 1.05 mM of MgCl2, 0.42 mM of NaH2PO4, 10 mM of NaHCO3, 2 mM of CaCl2 and 5 mM of glucose) in which a gaseous mixture of O2 (95%) and CO2 (5%) was introduced. A static tension of 2 g was applied thereto. The tension of the blood vessel was amplified with a transducer and a tension amplifier (EF-601G; Nihon Koden Corporation) and recorded with a multi-pen recorder (Rikadenki Kogyo Co., Ltd.). The experiments were conducted at 37° C.
After the tension had been stabilized, the nutrient solution in the sample tank was replaced with High K^+ Tyrode's solution (112.3 mM of NaCl, 50 mM of KCl, 1.05 mM of MgCl2, 0.42 mM of NaH2PO4, 10 mM of NaHCO3, 2 mM of CaCl2 and 5 mM of glucose) to conduct the contraction reaction. Thirty minutes after, the solution in the sample tank was replaced with the normal Tyrode's solution. The solution in the sample tank was again replaced with the High K^+ Tyrode's solution and the contraction reaction was observed. After attaining the maximum contraction reaction, the test compound was cumulatively added at intervals of 90 minutes to attain concentrations of 10^−9, 10^−8, 10^−7 and 10^−6 M. The inhibitory rate of the test compound against the maximum contraction response was employed as the index of the antagonistic activity on L-type calcium channels.
The value of pIC50 indicates the antagonistic activity of the test compound, i. e. the negative logarithm of the concentration of the test compound necessitated for the 50% inhibition.

T2 sequence (P22002 whole entry): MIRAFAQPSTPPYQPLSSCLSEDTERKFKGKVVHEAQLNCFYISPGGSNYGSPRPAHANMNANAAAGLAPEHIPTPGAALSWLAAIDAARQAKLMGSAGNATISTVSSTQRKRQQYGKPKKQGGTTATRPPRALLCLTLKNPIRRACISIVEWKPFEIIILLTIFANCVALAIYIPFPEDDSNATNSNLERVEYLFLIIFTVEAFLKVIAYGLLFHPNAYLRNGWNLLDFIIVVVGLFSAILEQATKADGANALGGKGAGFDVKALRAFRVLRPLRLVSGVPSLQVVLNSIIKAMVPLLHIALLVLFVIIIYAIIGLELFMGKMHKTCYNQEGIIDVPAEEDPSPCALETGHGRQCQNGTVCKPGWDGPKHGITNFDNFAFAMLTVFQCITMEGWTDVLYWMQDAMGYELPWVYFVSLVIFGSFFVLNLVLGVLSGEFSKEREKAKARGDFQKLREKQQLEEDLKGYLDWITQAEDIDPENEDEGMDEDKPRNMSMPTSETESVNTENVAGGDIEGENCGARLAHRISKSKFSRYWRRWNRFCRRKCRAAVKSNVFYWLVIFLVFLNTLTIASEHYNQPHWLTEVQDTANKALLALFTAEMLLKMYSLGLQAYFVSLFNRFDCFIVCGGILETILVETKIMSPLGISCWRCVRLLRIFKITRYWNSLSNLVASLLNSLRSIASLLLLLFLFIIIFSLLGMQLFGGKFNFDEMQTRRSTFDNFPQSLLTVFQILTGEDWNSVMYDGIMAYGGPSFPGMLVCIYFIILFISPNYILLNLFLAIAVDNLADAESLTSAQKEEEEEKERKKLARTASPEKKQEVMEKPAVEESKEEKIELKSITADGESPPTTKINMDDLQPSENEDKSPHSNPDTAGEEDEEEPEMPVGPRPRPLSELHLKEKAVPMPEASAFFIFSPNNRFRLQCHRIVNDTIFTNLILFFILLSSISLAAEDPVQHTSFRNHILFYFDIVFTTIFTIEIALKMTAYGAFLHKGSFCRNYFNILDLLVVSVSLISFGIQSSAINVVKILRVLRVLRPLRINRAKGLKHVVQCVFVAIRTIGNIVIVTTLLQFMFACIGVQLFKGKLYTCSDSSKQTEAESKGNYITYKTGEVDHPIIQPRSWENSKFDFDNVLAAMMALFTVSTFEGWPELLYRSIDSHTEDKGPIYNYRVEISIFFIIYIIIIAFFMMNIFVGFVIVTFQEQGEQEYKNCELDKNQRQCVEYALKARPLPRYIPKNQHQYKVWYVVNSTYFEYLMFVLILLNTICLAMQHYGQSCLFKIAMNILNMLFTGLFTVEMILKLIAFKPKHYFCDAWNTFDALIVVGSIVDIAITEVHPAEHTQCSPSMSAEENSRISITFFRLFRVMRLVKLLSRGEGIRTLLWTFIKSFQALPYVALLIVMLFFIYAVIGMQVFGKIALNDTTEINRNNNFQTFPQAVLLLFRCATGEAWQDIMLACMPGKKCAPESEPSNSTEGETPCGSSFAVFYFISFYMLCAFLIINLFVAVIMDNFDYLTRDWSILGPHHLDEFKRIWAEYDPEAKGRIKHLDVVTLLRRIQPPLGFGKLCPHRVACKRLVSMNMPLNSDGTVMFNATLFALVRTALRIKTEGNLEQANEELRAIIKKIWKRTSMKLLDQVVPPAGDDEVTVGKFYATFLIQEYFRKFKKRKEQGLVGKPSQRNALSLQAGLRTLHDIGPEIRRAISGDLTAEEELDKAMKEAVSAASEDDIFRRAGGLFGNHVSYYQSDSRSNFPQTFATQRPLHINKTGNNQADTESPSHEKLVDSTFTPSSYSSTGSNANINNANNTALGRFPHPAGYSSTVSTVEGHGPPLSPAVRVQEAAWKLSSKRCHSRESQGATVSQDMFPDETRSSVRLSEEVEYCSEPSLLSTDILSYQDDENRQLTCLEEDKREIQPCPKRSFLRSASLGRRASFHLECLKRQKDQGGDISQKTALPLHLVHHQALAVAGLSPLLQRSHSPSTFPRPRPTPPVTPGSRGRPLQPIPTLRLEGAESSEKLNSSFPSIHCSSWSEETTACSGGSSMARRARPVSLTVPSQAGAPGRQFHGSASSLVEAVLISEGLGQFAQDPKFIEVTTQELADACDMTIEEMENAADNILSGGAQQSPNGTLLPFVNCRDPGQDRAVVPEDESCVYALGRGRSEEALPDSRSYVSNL
T2 sequence (P54287 whole entry partner): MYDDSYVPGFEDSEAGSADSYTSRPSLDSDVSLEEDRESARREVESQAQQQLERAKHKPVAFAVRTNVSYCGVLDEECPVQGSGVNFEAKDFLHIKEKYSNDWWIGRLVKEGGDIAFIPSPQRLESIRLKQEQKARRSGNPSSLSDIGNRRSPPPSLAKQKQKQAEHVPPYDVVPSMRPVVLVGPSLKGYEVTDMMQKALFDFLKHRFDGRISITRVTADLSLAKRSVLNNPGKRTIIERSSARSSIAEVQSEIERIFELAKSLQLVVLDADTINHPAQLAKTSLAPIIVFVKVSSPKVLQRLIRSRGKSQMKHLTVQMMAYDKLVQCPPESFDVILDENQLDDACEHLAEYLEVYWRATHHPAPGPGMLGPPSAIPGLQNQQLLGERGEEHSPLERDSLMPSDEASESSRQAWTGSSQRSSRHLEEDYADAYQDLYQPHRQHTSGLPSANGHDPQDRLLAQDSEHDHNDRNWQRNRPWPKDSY
T2 sequence (P54290 25-944 partner limits assumed): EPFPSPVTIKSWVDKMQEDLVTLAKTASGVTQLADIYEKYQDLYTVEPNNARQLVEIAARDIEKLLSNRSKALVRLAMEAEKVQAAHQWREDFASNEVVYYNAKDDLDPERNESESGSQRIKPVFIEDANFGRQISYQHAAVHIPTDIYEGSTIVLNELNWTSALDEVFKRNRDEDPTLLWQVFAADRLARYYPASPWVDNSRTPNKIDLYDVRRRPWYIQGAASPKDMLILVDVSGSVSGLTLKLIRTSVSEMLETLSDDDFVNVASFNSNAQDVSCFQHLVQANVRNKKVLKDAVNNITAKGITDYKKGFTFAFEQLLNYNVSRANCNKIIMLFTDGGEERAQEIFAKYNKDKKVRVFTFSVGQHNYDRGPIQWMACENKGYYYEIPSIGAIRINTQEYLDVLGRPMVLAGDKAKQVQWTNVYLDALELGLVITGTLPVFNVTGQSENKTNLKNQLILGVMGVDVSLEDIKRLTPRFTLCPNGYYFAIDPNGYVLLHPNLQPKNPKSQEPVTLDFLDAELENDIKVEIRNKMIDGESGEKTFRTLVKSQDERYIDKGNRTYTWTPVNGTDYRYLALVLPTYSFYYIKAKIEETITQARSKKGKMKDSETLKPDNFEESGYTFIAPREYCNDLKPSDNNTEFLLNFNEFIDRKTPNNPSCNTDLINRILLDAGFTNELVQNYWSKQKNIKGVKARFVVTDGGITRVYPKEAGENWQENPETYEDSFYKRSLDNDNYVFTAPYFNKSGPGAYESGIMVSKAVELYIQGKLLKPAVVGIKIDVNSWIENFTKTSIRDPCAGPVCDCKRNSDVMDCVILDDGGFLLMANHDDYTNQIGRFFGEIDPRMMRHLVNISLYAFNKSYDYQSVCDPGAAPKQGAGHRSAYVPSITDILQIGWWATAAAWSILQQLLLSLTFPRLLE
T2 sequence (P54290 945-1091 partner limits assumed): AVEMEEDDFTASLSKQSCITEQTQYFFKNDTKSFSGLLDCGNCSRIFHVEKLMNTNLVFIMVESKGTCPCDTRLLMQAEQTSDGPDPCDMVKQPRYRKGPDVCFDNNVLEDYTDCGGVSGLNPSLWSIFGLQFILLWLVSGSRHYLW

With `CC(C)(C)C(=O)N[C@H](CO)CCC(=O)N1CCC(=C2c3ccccc3C=Cc3ccccc32)CC1` [Example 71, (S)-N-[4-[4-(5H-dibenzo[a,d][7]annulen-5-ylidene)-1-piperidinyl]-1-(hydroxylmethyl)-4-oxobutyl]-2.2-dimethylpropanamide], on N-type calcium channel, the inhibition at 10 µM worked out at 74%. On L-type calcium channel, the IC50 was 1260 nM.

In the case of `CC(C)(C)C(=O)NCCC(=O)N1CCC(=C2c3ccccc3C=Cc3ccccc32)CC1` [Example 11, N-{3-[4-(5H-dibenzo[a,d][7]annulen-5-ylidene)-1-piperidinyl]-3-oxopropyl}-2,2-dimethylpropanamide], the inhibition at 10 µM on N-type calcium channel was 77%. For the same compound, the IC50 on L-type calcium channel was 398 nM.
